Measured values taken from patent US10301317B2, “Inhibitors of ERK and methods of use” (Kura Oncology, Inc., priority 2013, dated 2019).

How the values were obtained:
Format in all cases: cell-based
[1] = tested on: phospho-p90 RSK (RSK1 Thr359/Ser363) in A375 (Braf V600E) cells; assay: Phospho-p90 RSK ELISA using A375 (Braf V600E) cells; conditions: Homo sapiens, A-375, 2 hours compound treatment, read-out: Cellular Phospho-p90RSK IC50
[2] = tested on: A375 cells; assay: Tumor cell line proliferation assay (CellTiter Glo), A375; conditions: Homo sapiens, A-375, 96 h, read-out: A375 (V599E) Cell Proliferation IC50
[3] = tested on: WM-266-4 cells; assay: Tumor cell line proliferation assay (CellTiter Glo), WM-266-4; conditions: Homo sapiens, 96 hours, read-out: WM-266-4 (V599D) Cell Proliferation IC50
[4] = tested on: H358 (Kras, G12C) cells; assay: Tumor cell line proliferation assay (CellTiter Glo), H358; conditions: Homo sapiens, NCI-H358, 96 hours

| Structure (SMILES) | IC50 [1] [nM] | IC50 [2] [nM] | IC50 [3] [nM] | IC50 [4] [nM] |
| --- | --- | --- | --- | --- |
| Cc1cc(-c2n[nH]c3cc4c(cc23)CN([C@H](C)c2ccccc2)C(=O)N4)ccn1 [Example 2, (R)-3-(2-methylpyridin-4-yl)-6-(1-phenylethyl)-5,6-dihydro-1H-pyrazolo[4,3-g]quinazolin-7(8H)-one] | ≤ 250 | 250 to 1000 | 250 to 1000 | – |
| Cc1cc(-c2n[nH]c3cc4[nH]c(=O)n(Cc5cccc(Cl)c5)c(=O)c4cc23)ccn1 [Example 24] | – | > 1000 | > 1000 | – |
| Cc1cc(-c2n[nH]c3cc4c(cc23)CN(Cc2cccc(Cl)c2)C(=O)N4)cc(C)n1 [Example 77] | ≤ 250 | ≤ 250 | – | 250 to 1000 |
| Cc1cc(-c2n[nH]c3cc4[nH]c(=O)c([C@H](C)c5ccccc5)cc4cc23)ccn1 [Example 84] | ≤ 250 | ≤ 250 | – | ≤ 250 |
| COc1ncc(-c2n[nH]c3cc4c(cc23)CN(Cc2ccc(F)cc2F)C(=O)N4)cn1 [Example 99] | ≤ 250 | 250 to 1000 | – | 250 to 1000 |
| COc1ncc(-c2n[nH]c3cc4c(cc23)CN([C@@H]2CCCN(Cc3ccccc3F)C2)C(=O)N4)cn1 [Example 101] | ≤ 250 | ≤ 250 | – | ≤ 250 |
| COc1ncc(-c2n[nH]c3cc4c(cc23)CN([C@@H]2CCCN(Cc3c(F)cccc3F)C2)C(=O)N4)cn1 [Example 102] | ≤ 250 | ≤ 250 | – | ≤ 250 |
| COc1ncc(-c2n[nH]c3cc4c(cc23)CN([C@@H]2CCCN(Cc3c(F)cccc3OC)C2)C(=O)N4)cn1 [Example 103] | ≤ 250 | ≤ 250 | – | ≤ 250 |
| O=C1Nc2cc3[nH]nc(-c4ccnnc4)c3cc2CN1[C@@H]1CCCN(Cc2ccccc2)C1 [Example 120] | ≤ 250 | 250 to 1000 | – | 250 to 1000 |
| O=C1Nc2cc3[nH]nc(-c4cncnc4)c3cc2CN1Cc1cccc(Cl)c1 [Example 123] | ≤ 250 | 250 to 1000 | – | 250 to 1000 |
| Cc1cc(-c2n[nH]c3cc4c(cc23)CN([C@@H]2CCCN(Cc3ccc(F)cn3)C2)C(=O)N4)ccn1 [Example 132] | ≤ 250 | 250 to 1000 | – | 250 to 1000 |
| Cc1cc(-c2n[nH]c3cc4c(cc23)CN([C@@H]2CCCN(Cc3ccc(F)c(Cl)c3)C2)C(=O)N4)ccn1 [Example 134] | ≤ 250 | ≤ 250 | – | 250 to 1000 |
| Cc1cc(-c2n[nH]c3cc4c(cc23)CN([C@@H]2CCCN(CCC(C)(C)C)C2)C(=O)N4)ccn1 [Example 136] | 250 to 1000 | 250 to 1000 | – | > 1000 |
| Cc1cc(-c2n[nH]c3cc4c(cc23)CN([C@@H]2CCCN(CC3CCCC3)C2)C(=O)N4)ccn1 [Example 138] | 250 to 1000 | 250 to 1000 | – | > 1000 |
| Cc1cc(-c2n[nH]c3cc4c(cc23)CN([C@@H]2CCCN(Cc3cc(C)no3)C2)C(=O)N4)ccn1 [Example 139] | 250 to 1000 | 250 to 1000 | – | 250 to 1000 |
| Cc1cc(-c2n[nH]c3cc4c(cc23)CN([C@@H]2CCCN(Cc3csc(C)n3)C2)C(=O)N4)ccn1 [Example 140] | ≤ 250 | 250 to 1000 | – | 250 to 1000 |
| Cc1cc(-c2n[nH]c3cc4c(cc23)CN([C@@H]2CCCN(CC3CCCCC3)C2)C(=O)N4)ccn1 [Example 141] | ≤ 250 | 250 to 1000 | – | 250 to 1000 |
| Cc1cc(-c2n[nH]c3cc4c(cc23)CN([C@@H]2CCCN(Cc3c(F)cccc3F)C2)C(=O)N4)ccn1 [Example 143] | ≤ 250 | ≤ 250 | – | ≤ 250 |
| COc1cccc(F)c1CN1CCC[C@@H](N2Cc3cc4c(-c5ccnc(C)c5)n[nH]c4cc3NC2=O)C1 [Example 144] | ≤ 250 | ≤ 250 | – | ≤ 250 |
| Cc1cc(-c2n[nH]c3cc4c(cc23)CN([C@@H]2CCN(Cc3ccccc3)C2)C(=O)N4)ccn1 [Example 146] | ≤ 250 | ≤ 250 | – | ≤ 250 |
| Cc1cc(-c2n[nH]c3cc4c(cc23)CN([C@@H]2CCN(Cc3c(F)cccc3F)C2)C(=O)N4)ccn1 [Example 147] | ≤ 250 | 250 to 1000 | – | ≤ 250 |

| Structure (SMILES) | IC50 [1] [nM] | IC50 [2] [nM] | IC50 [3] [nM] | IC50 [4] [nM] |
| --- | --- | --- | --- | --- |
| Cc1cc(-c2n[nH]c3cc4c(cc23)CN([C@@H]2CCCN(Cc3cccnc3C(F)(F)F)C2)C(=O)N4)ccn1 [Example 161] | ≤ 250 | 250 to 1000 | – | 250 to 1000 |
| Cc1cc(-c2n[nH]c3cc4c(cc23)CN([C@@H]2CCCN(Cc3cc(F)cc(F)c3)C2)C(=O)N4)ccn1 [Example 163] | ≤ 250 | 250 to 1000 | – | 250 to 1000 |
| [2H]c1c([2H])c([2H])c(C([2H])([2H])N2CCC[C@@H](N3Cc4cc5c(-c6ccnc(C)c6)n[nH]c5cc4NC3=O)C2)c([2H])c1[2H] [Example 165] | ≤ 250 | ≤ 250 | – | ≤ 250 |
| Cc1cc(-c2n[nH]c3cc4c(cc23)CN([C@@H]2CCCN(c3cccc(Cl)c3)C2)C(=O)N4)ccn1 [Example 174] | ≤ 250 | 250 to 1000 | – | ≤ 250 |
| Cc1cc(-c2n[nH]c3cc4c(cc23)CN([C@@H]2CCCN(CCC(F)(F)F)C2)C(=O)N4)ccn1 [Example 178] | ≤ 250 | 250 to 1000 | – | 250 to 1000 |
| Cc1cc(-c2n[nH]c3cc4c(cc23)CN([C@@H]2CCCN(C(C)c3ccc(F)cc3)C2)C(=O)N4)ccn1 (some centres unmarked) [Example 179] | ≤ 250 | 250 to 1000 | – | 250 to 1000 |
| Cc1cc(-c2n[nH]c3cc4c(cc23)CN([C@@H]2CCCN(C(C)c3cccc(Cl)c3)C2)C(=O)N4)ccn1 (some centres unmarked) [Example 180] | ≤ 250 | 250 to 1000 | – | 250 to 1000 |
| Cc1cc(-c2n[nH]c3cc4c(cc23)CC(C(C)c2cccc(Cl)c2)C(=O)N4)ccn1 (centres unmarked) [Example 181] | ≤ 250 | ≤ 250 | – | ≤ 250 |
| Cc1cc(-c2n[nH]c3cc4c(cc23)CN([C@@H]2CCCN(Cc3ccc(F)c(F)c3)C2)C(=O)N4)ccn1 [Example 190] | ≤ 250 | ≤ 250 | – | 250 to 1000 |
| Cc1cc(-c2n[nH]c3cc4c(cc23)CN([C@@H]2CCCN(CC(F)(F)F)C2)C(=O)N4)ccn1 [Example 193] | ≤ 250 | 250 to 1000 | – | 250 to 1000 |
| Cc1cc(-c2n[nH]c3cc4c(cc23)CN([C@@H]2CCCN(Cc3ccc(F)cc3F)C2)C(=O)N4)ccn1 [Example 196] | ≤ 250 | ≤ 250 | – | ≤ 250 |
| Cc1cc(-c2n[nH]c3cc4c(cc23)CN([C@@H]2CCCN(c3ccc(F)cn3)C2)C(=O)N4)ccn1 [Example 199] | ≤ 250 | 250 to 1000 | – | 250 to 1000 |
| Cc1cc(-c2n[nH]c3cc4c(cc23)CN(C2CN(Cc3ccccc3)CC(F)(F)C2)C(=O)N4)ccn1 (centres unmarked) [Example 200] | ≤ 250 | 250 to 1000 | – | 250 to 1000 |
| Cc1cc(-c2n[nH]c3cc4c(cc23)CN(C2CN(CC3CCCC3)CC(F)(F)C2)C(=O)N4)ccn1 (centres unmarked) [Example 201] | > 1000 | > 1000 | – | > 1000 |
| Cc1cc(-c2n[nH]c3cc4c(cc23)CN(C2CN(Cc3cc(F)cc(F)c3)CC(F)(F)C2)C(=O)N4)ccn1 (centres unmarked) [Example 202] | > 1000 | > 1000 | – | > 1000 |
| Cc1cc(-c2n[nH]c3cc4c(cc23)CN(C2CCCCC2)C(=O)N4)ccn1 [Example 204] | 250 to 1000 | 250 to 1000 | – | > 1000 |
| Cc1cc(-c2n[nH]c3cc4c(cc23)CN(C2CCCC2)C(=O)N4)ccn1 [Example 205] | ≤ 250 | 250 to 1000 | – | 250 to 1000 |
| Cc1cc(-c2n[nH]c3cc4c(cc23)CN([C@@H]2CCN(CC(F)(F)F)C2)C(=O)N4)ccn1 [Example 214] | ≤ 250 | ≤ 250 | – | ≤ 250 |
| Cc1cc(-c2n[nH]c3cc4[nH]c(=O)c(C(O)c5ccccc5)cc4cc23)ccn1 (centres unmarked) [Example 221] | 250 to 1000 | 250 to 1000 | – | 250 to 1000 |
| Cc1cc(-c2n[nH]c3cc4c(cc23)CN([C@@H]2CN(CC(F)(F)F)C[C@H]2c2ccccc2)C(=O)N4)ccn1 [Example 222] | ≤ 250 | 250 to 1000 | – | 250 to 1000 |
